Reference: article PMC11951083, “Highly Specific Miniaturized Fluorescent Monoacylglycerol Lipase Probes Enable Translational Research” (Journal of the American Chemical Society, 2025)

How the values were obtained:
[1] = biological target: GSK3alpha (h) (Homo sapiens, UniProt P49840); assay: GSK3alpha (h); conditions: read-out: Inhibition GSK3alpha (h)
[2] = biological target: acetylcholinesterase (h) (Homo sapiens, UniProt P22303); assay: acetylcholinesterase (h); conditions: read-out: Inhibition acetylcholinesterase (h)
acetylcholinesterase (h), sequence (P22303 32-614): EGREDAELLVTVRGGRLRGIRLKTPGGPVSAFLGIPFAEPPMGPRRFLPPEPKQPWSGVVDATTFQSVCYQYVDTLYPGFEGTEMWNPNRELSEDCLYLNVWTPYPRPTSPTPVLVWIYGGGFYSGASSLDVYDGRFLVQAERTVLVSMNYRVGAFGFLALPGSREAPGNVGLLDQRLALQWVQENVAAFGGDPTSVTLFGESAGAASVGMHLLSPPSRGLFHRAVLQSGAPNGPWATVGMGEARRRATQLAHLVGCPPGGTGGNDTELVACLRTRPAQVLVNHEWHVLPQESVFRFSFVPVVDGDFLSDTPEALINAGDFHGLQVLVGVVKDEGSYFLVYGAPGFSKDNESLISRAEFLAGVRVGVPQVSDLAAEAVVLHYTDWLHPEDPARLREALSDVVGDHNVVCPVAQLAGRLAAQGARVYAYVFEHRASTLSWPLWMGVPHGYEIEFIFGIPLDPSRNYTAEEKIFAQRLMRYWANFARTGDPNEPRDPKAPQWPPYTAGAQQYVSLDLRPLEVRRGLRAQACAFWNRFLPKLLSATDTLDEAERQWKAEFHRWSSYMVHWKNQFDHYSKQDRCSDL

[3] = biological target: T1, AR(h) (Homo sapiens, UniProt P10275); assay: AR(h) (agonist radioligand); conditions: read-out: Inhibition AR(h) (agonist radioligand)
T1 sequence (P10275 1-920): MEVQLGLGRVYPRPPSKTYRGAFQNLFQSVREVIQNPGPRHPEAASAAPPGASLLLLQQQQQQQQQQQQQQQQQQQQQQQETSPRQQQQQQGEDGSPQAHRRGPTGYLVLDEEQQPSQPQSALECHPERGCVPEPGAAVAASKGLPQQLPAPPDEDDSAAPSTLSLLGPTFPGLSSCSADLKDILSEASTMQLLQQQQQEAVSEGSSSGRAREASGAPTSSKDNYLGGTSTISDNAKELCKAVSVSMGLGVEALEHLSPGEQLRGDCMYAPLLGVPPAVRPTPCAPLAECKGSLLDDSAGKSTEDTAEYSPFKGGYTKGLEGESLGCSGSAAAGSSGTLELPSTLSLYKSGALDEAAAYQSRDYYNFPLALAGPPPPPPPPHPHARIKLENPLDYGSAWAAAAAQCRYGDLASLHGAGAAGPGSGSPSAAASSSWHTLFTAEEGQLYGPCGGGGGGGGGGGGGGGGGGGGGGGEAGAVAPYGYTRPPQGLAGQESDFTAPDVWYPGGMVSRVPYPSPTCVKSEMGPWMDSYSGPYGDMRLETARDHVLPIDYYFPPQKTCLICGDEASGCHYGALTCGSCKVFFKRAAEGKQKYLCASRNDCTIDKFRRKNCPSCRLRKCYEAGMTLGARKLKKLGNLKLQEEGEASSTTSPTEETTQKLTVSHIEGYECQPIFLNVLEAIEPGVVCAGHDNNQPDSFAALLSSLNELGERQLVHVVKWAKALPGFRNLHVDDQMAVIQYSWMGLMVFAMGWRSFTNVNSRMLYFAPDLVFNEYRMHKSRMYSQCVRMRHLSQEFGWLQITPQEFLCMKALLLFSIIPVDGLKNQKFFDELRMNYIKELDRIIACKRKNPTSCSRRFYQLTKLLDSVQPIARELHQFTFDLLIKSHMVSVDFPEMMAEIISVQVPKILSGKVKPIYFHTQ

[4] = biological target: T2, alpha2A (h) (Homo sapiens, UniProt P08913); assay: alpha2A (h) (antagonist radioligand); conditions: read-out: Inhibition alpha2A (h) (antagonist radioligand)
T2 sequence (P08913 1-465): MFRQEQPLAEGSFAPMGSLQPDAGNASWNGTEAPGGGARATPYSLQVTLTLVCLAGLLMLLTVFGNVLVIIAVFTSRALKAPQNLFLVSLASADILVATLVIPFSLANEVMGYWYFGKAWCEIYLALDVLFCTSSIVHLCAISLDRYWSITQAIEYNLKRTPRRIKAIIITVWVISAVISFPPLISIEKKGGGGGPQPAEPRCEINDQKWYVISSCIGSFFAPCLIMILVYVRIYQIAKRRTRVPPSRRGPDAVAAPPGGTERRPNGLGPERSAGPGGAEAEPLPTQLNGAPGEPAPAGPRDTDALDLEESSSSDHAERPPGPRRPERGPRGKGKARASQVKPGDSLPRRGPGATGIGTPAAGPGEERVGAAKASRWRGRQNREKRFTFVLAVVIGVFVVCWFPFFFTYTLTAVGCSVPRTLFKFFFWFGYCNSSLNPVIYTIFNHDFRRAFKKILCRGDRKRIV

[5] = biological target: T3, alpha1A (h) (Homo sapiens, UniProt P35348); assay: alpha1A (h) (antagonist radioligand); conditions: read-out: Inhibition alpha1A (h) (antagonist radioligand)
T3 sequence (P35348 1-466): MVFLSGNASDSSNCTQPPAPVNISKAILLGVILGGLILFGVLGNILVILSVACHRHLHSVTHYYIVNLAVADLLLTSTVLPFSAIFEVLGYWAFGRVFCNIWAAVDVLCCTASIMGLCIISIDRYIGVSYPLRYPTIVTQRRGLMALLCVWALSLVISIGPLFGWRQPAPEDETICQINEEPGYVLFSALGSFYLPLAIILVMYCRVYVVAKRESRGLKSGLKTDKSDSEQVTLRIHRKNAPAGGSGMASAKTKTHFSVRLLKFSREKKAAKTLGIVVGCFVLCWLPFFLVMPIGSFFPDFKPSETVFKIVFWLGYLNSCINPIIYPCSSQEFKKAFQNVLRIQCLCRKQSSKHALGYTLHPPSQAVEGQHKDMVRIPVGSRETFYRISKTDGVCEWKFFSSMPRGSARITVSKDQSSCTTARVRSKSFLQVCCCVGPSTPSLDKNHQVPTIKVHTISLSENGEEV

[6] = biological target: T4, MAO-A (h) monoamine oxydase A (Homo sapiens, UniProt P21397); assay: MAO-A (h) monoamine oxydase A, enzymatic assay; conditions: read-out: Inhibition MAO-A (h) monoamine oxydase A, enzymatic assay
T4 sequence (P21397 1-527): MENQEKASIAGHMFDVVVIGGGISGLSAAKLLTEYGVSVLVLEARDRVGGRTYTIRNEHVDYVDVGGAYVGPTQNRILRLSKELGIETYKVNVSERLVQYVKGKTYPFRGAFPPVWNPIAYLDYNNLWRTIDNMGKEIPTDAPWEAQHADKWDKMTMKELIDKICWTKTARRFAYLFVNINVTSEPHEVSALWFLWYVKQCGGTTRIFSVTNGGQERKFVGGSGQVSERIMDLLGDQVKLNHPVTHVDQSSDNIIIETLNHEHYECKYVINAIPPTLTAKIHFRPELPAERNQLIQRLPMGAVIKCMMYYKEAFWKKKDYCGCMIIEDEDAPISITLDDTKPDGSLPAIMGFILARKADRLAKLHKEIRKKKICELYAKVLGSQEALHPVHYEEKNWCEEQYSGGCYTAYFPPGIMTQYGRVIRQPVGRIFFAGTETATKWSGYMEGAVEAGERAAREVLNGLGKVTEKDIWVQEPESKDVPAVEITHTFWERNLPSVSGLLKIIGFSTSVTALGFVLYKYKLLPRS

[7] = biological target: MMP-9 (h) (Homo sapiens, UniProt P14780); assay: MMP-9 (h); conditions: read-out: Inhibition MMP-9 (h)
MMP-9 (h), sequence (P14780 94-707): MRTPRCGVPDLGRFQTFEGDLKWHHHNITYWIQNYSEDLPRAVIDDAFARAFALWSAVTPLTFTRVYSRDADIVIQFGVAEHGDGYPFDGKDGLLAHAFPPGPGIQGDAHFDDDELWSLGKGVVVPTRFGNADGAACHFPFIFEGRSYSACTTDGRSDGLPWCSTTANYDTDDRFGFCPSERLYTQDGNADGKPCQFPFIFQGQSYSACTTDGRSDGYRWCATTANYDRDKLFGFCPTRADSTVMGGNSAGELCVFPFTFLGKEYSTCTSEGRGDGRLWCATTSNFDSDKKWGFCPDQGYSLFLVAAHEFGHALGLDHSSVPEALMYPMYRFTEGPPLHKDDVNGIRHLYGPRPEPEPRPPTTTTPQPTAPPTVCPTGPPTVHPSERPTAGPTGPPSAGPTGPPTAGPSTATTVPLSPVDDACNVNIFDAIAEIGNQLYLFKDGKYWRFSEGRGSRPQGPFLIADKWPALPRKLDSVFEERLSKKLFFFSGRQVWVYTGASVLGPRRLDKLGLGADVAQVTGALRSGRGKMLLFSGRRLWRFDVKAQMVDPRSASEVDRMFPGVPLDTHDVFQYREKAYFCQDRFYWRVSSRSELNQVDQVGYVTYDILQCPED

GSK3alpha (h), sequence (P49840 whole entry): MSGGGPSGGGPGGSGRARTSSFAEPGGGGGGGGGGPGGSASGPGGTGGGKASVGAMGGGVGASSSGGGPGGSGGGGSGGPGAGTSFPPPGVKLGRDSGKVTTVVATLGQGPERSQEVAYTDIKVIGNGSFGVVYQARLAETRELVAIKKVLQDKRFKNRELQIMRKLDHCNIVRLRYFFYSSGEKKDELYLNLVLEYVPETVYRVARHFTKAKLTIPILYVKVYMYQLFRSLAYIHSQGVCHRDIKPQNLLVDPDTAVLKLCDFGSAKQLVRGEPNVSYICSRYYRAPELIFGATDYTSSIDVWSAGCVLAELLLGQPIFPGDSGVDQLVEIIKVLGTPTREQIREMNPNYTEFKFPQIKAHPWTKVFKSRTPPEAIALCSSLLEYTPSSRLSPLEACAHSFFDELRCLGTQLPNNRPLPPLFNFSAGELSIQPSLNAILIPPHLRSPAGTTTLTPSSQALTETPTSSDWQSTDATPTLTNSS

For O=C(O[C@H](CO)C(F)(F)F)N1CC2(CC(CC3=C4C=CC=[N+]4[B-](F)(F)n4cccc43)C2)C1 [Compound 1], the inhibition at 10 µM [1] was 0.3%, the inhibition at 10 µM [2] was -8.2% and the inhibition at 10 µM [3] was -14.2%. For the same compound, the inhibition at 10 µM [4] was 11.7%, the inhibition at 10 µM [5] was 7.6% and the inhibition at 10 µM [6] was 22.6%.

O=C(OC(C(F)(F)F)C(F)(F)F)N1CC2(CC(CC3=C4C=CC=[N+]4[B-](F)(F)n4cccc43)C2)C1 [Compound 2] showed an inhibition at 10 µM [7] of 4.5%, an inhibition at 10 µM [1] of -3.4% and an inhibition at 10 µM [2] of -2.9%. It also gave an inhibition at 10 µM [3] of 4.2%, an inhibition at 10 µM [4] of -2.2% and an inhibition at 10 µM [5] of -4.6%. It also gave an inhibition at 10 µM [6] of -1.3%.

O=C(OC(C(F)(F)F)C(F)(F)F)N1CC2(CC(CC3=C4C=CC(c5ccc[nH]5)=[N+]4[B-](F)(F)n4cccc43)C2)C1 [Compound 2a] showed an inhibition at 10 µM [7] of 9.7%, an inhibition at 10 µM [1] of -5.8% and an inhibition at 10 µM [2] of 2.5%. It also gave an inhibition at 10 µM [3] of 6%, an inhibition at 10 µM [4] of -0.9% and an inhibition at 10 µM [5] of -3.4%. It also gave an inhibition at 10 µM [6] of -3%.

O=C1CO[C@H]2CCN(C(=O)N3CC4(CC(CC5=C6C=CC(c7ccc[nH]7)=[N+]6[B-](F)(F)n6cccc65)C4)C3)C[C@H]2N1 [Compound 4a] showed an inhibition at 10 µM [7] of 47%, an inhibition at 10 µM [1] of -24.8% and an inhibition at 10 µM [2] of 1.8%. It also gave an inhibition at 10 µM [3] of -1.4%, an inhibition at 10 µM [4] of 7.4% and an inhibition at 10 µM [5] of 45.5%. For the same compound, the inhibition at 10 µM [6] was 4.3%.

O=C(N1CC2(CC(CC3=C4C=CC=[N+]4[B-](F)(F)n4cccc43)C2)C1)N1CC2(CC(n3cnc(C4CC4)n3)C2)C1 [Compound 5] was tested, and the inhibition at 10 µM [7] was 16.8%, the inhibition at 10 µM [1] was -1.8% and the inhibition at 10 µM [2] was -14.4%. For the same compound, the inhibition at 10 µM [3] was -19.8%, the inhibition at 10 µM [4] was -8.9% and the inhibition at 10 µM [5] was 2.1%. For the same compound, the inhibition at 10 µM [6] was 4.4%.
